Laboratory results reported in patent US20250325712A1, “TARGETING LIGANDS FOR DISEASE-TARGETED IMAGING AGENTS AND METHODS OF USE THEREFOR” (Curadel Surgical Innovations, Inc., priority 2024, published 2025).

Assay: Stability of dyes in 37° C. buffered fetal bovine serum (normalized absorbance and absorbance spectra over time)
Assay type: in vitro ADME
Conditions: compared to ZW800-1
Protocol: The normalized absorbance of ZW800-1 and ZW700-1c in 37° C. buffered FBS, pH 7.4 over time from 0 to 60 hours are shown in FIGS. 2-4.

stability: normalized absorbance over time (37° C. buffered FBS, pH 7.4, 0 to 60 hours): extreme stability
stability over time: changes in absorption spectra during metabolism in warm serum (warm serum (37° C. buffered FBS, pH 7.4, 0 to 48 hours)): high stability
Compound: CC1(C)C(/C=C/C(=C/C=C2/N(CCC[N+](C)(C)C)c3ccc(S(=O)(=O)[O-])cc3C2(C)C)c2ccc(CCC(=O)[O-])cc2)=[N+](CCC[N+](C)(C)C)c2ccc(S(=O)(=O)[O-])cc21 [ZW700-1c]
